Source: patent US20120094919A1, “USE OF TRIPEPTIDES” (priority 2009, published 2012)

How the values were obtained:
Assay type in all cases: cell-based
Conditions in all cases: 3 days incubation
[1] = tested on: Hyaluronan synthesis in normal human fibroblasts (NHF); assay: Hyaluronan synthesis in normal human fibroblasts (Hyaluronan Assay Kit)
Description: Normal human fibroblasts (NHF) were seeded in 96 well cell culture plates (Nunclon). After three days of growth a tripeptide derivative of the present invention was added in medium without FCS and the cells were incubated for an additional three days. Secreted Hyaluronan synthesis in the growth medium was measured using the Hyaluronan Assay Kit from Echelon (Salt Lake City, Utah).
(§1) The results were evaluated relative to a control consisting of cells that have not been treated with the tripeptide derivative of formula (I) and which is set to 100%.

[2] = tested on: Lumican synthesis in normal human fibroblasts (NHF); assay: Lumican synthesis in normal human fibroblasts (EIA)
Description: (§2) Normal human fibroblasts (NHF) were grown in 96 well culture plates (Nunclon). After three days a tripeptide derivative of the present invention was added in medium without FCS and the cells were incubated for an additional three days. To measure Lumican synthesis an enzyme linked immunoassay (EIA) was performed. In brief: the cells were fixed with 4% paraformaldehyde, and permeabilized with 0.5 Triton-X100 followed by blocking of unspecific binding sites with 5% skim milk. To stain for Lumican the cells were incubated with goat-anti-Lumican (L-20) antibody (Santa Cruz Biotechnology, sc-27718) which was detected with goat-anti-mouse HRP conjugated (Pierce) secondary antibody. After addition of substrate Lumican synthesis was measured at 492 nm in an absorbance plate reader (Multiskan Ascent, Thermolabsystems).
as §1

[3] = tested on: Decorin synthesis in normal human fibroblasts (NHF); assay: Decorin synthesis in normal human fibroblasts (EIA)
Description: as §2, with “well cell” for “well”, “Decorin” for “Lumican”, “goat-anti-Decorin” for “goat-anti-Lumican (L-20)”, “(R&Dsystems)” for “(Santa Cruz Biotechnology, sc-27718)”, “rabbit-anti-goat” for “goat-anti-mouse”
as §1

[4] = 10 μM, untreated control = 100%
[5] = 25 μM, untreated control = 100%
[6] = 100 μM, relative to untreated control
[7] = 50 μM, untreated control = 100%
[8] = 12.5 μM, untreated control = 100%

Substance | Synthesis Stimulation of Hyaluronan [1, 6] | Synthesis Stimulation of Lumican [2, 6] | Synthesis Stimulation of Decorin [3, 6] | Synthesis Stimulation of Hyaluronan [1, 5] [%] | also measured
Palm-Lys-Val-Lys-OH *2 TFA [Tripeptide No 1] | – | – | – | – | Synthesis Stimulation of Hyaluronan [1, 4]: 220%; Synthesis Stimulation of Lumican [2, 4]: 120%; Synthesis Stimulation of Decorin [3, 5]: 200%/25 μM
Myristoyl-Lys-Val-Lys-OH*2TFA [Tripeptide No 11] | inactive | inactive | inactive | – | –
Palm-Lys-Val-Dab-NH-Hexadecyl *2 TFA [Tripeptide No 7] | – | – | – | 300 | –
Tetradecyl-NH—C(O)-Lys-Ile-Dab-OH *2 TFA [Tripeptide No 9] | – | – | – | 220 | –
H-Lys-Val-Lys-OH *3 TFA [Tripeptide No 15] | inactive | inactive | inactive | – | –
Lauroyl-Lys-Val-Lys-OH*2TFA [Tripeptide No 12] | inactive | inactive | inactive | – | –
Caprinoyl-Lys-Val-Lys-OH*2TFA [Tripeptide No 13] | inactive | inactive | inactive | – | –
Palm-Lys-Val-Dab-OH *2 TFA [Tripeptide No 18] | inactive | inactive | inactive | – | –
Stearoyl-Lys-Val-Lys-OH*2TFA [Tripeptide No 14] | inactive | inactive | inactive | – | –
Palm-Orn-Val-Lys-OH *2 TFA [Tripeptide No 2] | – | – | – | – | Synthesis Stimulation of Hyaluronan [1, 7]: 180%
Palm-Lys-Nva-Dab-OH *2TFA [Tripeptide No 5] | – | – | – | 220 | –
Palm-Lys-Leu-Lys-OH *2 TFA [Tripeptide No 3] | – | – | – | 180 | –
Palm-Lys-Val-Orn-OH *2 TFA [Tripeptide No 16] | inactive | inactive | inactive | – | –
Tetradecyl-NH—C(O)-Dab-Val-Dab-OH *2 TFA [Tripeptide No 8] | – | – | – | – | Synthesis Stimulation of Hyaluronan [1, 8]: 400%; Synthesis Stimulation of Lumican ([2]; 100 μM, untreated control = 100%): 165%/100 μM; Synthesis Stimulation of Decorin [3, 8]: 170%
Tetradecyl-NH—C(O)-Arg-Val-Arg-OH *2 TFA [Tripeptide No 10] | – | – | – | 220 | –
Palm-Lys-Ile-Dab-OH *2TFA [Tripeptide No 4] | – | – | – | 180 | –
Palm-Lys-Val-Dap-OH *2 TFA [Tripeptide No 17] | inactive | inactive | inactive | – | –
Palm-Lys-Leu-Dab-OH *2TFA [Tripeptide No 6] | – | – | – | – | Synthesis Stimulation of Hyaluronan [1, 7]: 220%
